Measured values reported in ChEMBL document CHEMBL5252652, “Benzo[b]naphtho[2,1-d]furans and 2-Phenylnaphthalenes from Streblus usambarensis” (J Nat Prod, 2023).
Values after ≈ are worked out from the molar mass of the structure shown.

Experiments:
Bacillus subtilis = experiment: Antibacterial activity against Bacillus subtilis assessed as inhibition of bacterial growth incubated for 4 to 20 hrs by resazurin based microplate reader analysis; type: functional; conditions: time 4-20 hrs
MCF7 = experiment: Cytotoxicity against human MCF7 cells assessed as reduction in cell viability incubated for 24 hrs by PrestoBlue reagent based fluorescence assay; type: toxicity; conditions: mcf7, 24 h

| MIC (Bacillus subtilis) [µM] | Compound | Activity (MCF7) |
| --- | --- | --- |
| 9 (≈ 2.87 µg/mL) | CC1(C)C=Cc2c(-c3ccc4ccc(O)cc4c3)ccc(O)c2O1 | Non-Toxic |
| – | COc1c(O)cc2c(oc3c4cc(O)ccc4ccc23)c1CC=C(C)C | Non-Toxic |
| – | COc1ccc2ccc3c4cc(O)c(OC)c(CC=C(C)C)c4oc3c2c1 | Non-Toxic |
